Laboratory results published in paper PMC5477026 (Chemical Science, 2016).
pKd: −log10 of the molar value.

Molecular target: T1, MexG (Pseudomonas aeruginosa, UniProt Q9HWH6)
T1 sequence (Q9HWH6 1-148): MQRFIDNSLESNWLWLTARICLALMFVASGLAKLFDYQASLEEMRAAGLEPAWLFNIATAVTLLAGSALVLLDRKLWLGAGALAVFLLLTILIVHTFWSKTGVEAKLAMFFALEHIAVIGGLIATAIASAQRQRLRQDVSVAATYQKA
Assay: intrinsic Trp fluorescence quenching titration
Type: binding

Question: CCCCCCCc1[nH]c2ccccc2c(=O)c1O [PQS, 2-heptyl-3-hydroxy-4(1H)-quinolone] was tested. Which pKd did it give?
Answer: The pKd was 6.00.
